{"source": "patent US10376535B2", "about": "“Therapy for malignant disease” (UNIVERSITY OF ROCHESTER, priority 2015, dated 2019)", "molecules": {"B1": {"name": "recombinant HE4: exogenous recombinant human epididymis protein 4 added to PBMCs (protein, UniProt Q14508 31-124, looked up)", "WAP four-disulfide core …": "EKTGVCPELQADQNCTQECVSDSECADNLKCCSAGCATFCSLPNDKEGSCPQVNINFPQLGLCRDQCQVDSQCPGQMKCCRNGCGKVSCVTPNF"}}, "key": {"[1]": {"test_system": "SKOV-3 cells", "experiment": "Tumor size in SKOV-3 xenograft, cisplatin-resistant murine model of ovarian cancer", "assay_type": "in vivo", "conditions": "SKOV-3 xenograft nude mice; IP; oligos 7 mg/kg, cisplatin 10 mg/kg once a week; measured every 3 days", "description": "Four to six week-old immunodeficient nude mice were maintained at a temperature of ˜22° C. and a relative humidity of ˜55%, with a 12 hour light/dark cycle. The mice used were NU/NU; strain code 088/homozygous, obtained from Charles River Laboratories, Wilmington, Mass. The inoculation of the mice began with culturing SKOV-3 cells to 80% confluence, washing the SKOV-3 cells in PBS twice, and harvesting the cells by trypsination. The harvested cells were then pooled in complete medium, washed in PBS twice, and 2×10^6 cells/inoculate were suspended in 0.1 ml of matrigel. This cell suspension was used to inoculate the mice subcutaneously in the flank of each mouse. Mice with developing tumors after two weeks were randomly assigned to experimental groups. Mice were treated intraperitoneally with either vehicle control (control group; 7 animals) or Antisense-1 (7 mg/kg bwt) or scrambled PTO (7 mg/kg bwt) for 7 days. In another arm mice were treated with cisplatin (10 mg/kg, once a week), or scrambled PTO (7 mg/kg, 5 times/week)+ cisplatin (10 mg/kg, IP, once a week) or Antisense-1 (7 mg/kg, IP, once a week)+ Cisplatin (10 mg/kg, IP, once a week). Mice were weighed and tumor size was measured using a digital caliper every 3 days."}, "[2]": {"test_system": "PD-L1", "experiment": "PD-L1 immunofluorescence after MeTC7 treatment, DAOY medulloblastoma cells", "assay_type": "cell-based, human", "conditions": "MeTC7 125 nM, confocal microscopy", "description": "FIG. 12 is a fluorescent micrograph depicting the effects of MeTC7 (125 nM) treatment on immune checkpoint PD-L1 expression in DAOY (human) medulloblastoma cells. Treated/naïve DAOY cells were analyzed by spinning disk confocal microscopy after staining with PD-L1 primary and suitable secondary antibodies.\nCo-localization of VDR and PD-L1 was performed following the method in the Examples above. To determine the expression level of PD-L1 after MeTC7 treatment (125 nM), 10000 cells/well of SKOV-3, OVCAR-8 human ovarian carcinoma cells, IGROV-1 human ovarian carcinoma cells, and ID-8 murine ovarian cancer cells were seeded in an 8 well slide chamber (Nunc) and allowed to adhere overnight in FBS supplemented DMEM media. After 18 hours, the media was removed and the cells were treated with vehicle or MeTC7 supplemented DMEM serum free media for 4-6 hours. Cells maintained in DMEM medium were fixed with formalin solution for 15 mins, washed with PBST solution and blocked with Donkey serum 5% in PBST for 30 minutes. Cells were carefully washed and stained with PD-L1 primary antibody overnight in PBST. The cells were washed and stained with corresponding fluorescence linked secondary antibody for 1 hour. […] Casing on the chambers were removed and DAPI was applied in a mounting medium and images were recorded using an epi or confocal microscopy."}, "[3]": {"test_system": "PD-L1", "experiment": "PD-L1 immunofluorescence after MeTC7 treatment, human ovarian carcinoma cells (SKOV-3, OVCAR-8, IGROV-1)", "assay_type": "cell-based", "conditions": "MeTC7 125 nM, 4-6 hours", "description": "(§1) Co-localization of VDR and PD-L1 was performed following the method in the Examples above. To determine the expression level of PD-L1 after MeTC7 treatment (125 nM), 10000 cells/well of SKOV-3, OVCAR-8 human ovarian carcinoma cells, IGROV-1 human ovarian carcinoma cells, and ID-8 murine ovarian cancer cells were seeded in an 8 well slide chamber (Nunc) and allowed to adhere overnight in FBS supplemented DMEM media. After 18 hours, the media was removed and the cells were treated with vehicle or MeTC7 supplemented DMEM serum free media for 4-6 hours. Cells maintained in DMEM medium were fixed with formalin solution for 15 mins, washed with PBST solution and blocked with Donkey serum 5% in PBST for 30 minutes. Cells were carefully washed and stained with PD-L1 primary antibody overnight in PBST. The cells were washed and stained with corresponding fluorescence linked secondary antibody for 1 hour. Cells were washed repeatedly with PBST (200 μL) five times. Casing on the chambers were removed and DAPI was applied in a mounting medium and images were recorded using an epi or confocal microscopy."}, "[4]": {"test_system": "PD-L1", "experiment": "PD-L1 immunofluorescence after MeTC7 treatment, ID-8 murine ovarian cancer cells", "assay_type": "cell-based", "conditions": "MeTC7 125 nM, 4-6 hours", "description": "as §1"}, "[5]": {"test_system": "PD-L1", "experiment": "PD-L1 expression after MeTC7 treatment, melanoma cells", "assay_type": "cell-based"}, "[6]": {"test_system": "PD-1", "experiment": "RT-PCR of PD-1 in donor PBMCs incubated with recombinant HE4", "assay_type": "cell-based, human", "conditions": "HE4 5.4 nM, donor PMBCs, within 6 hours", "description": "Ficoll-Paque density gradient centrifugation was used to isolate PBMC from heparinized venous blood. Unfractionated PBMC were suspended in serum free RPMI1640 medium. Then the cells were incubated with recombinant HE4 (5.4 nM) or vehicle for 6 hours. TRIzol reagent was used to isolate the total RNA, and the first strand cDNA was made by SuperScript III reverse transcriptase. RT-PCR for the cDNA was done with PD-1 or GAPDH (internal control) gene specific primers. The primer sequences used for PD-1 are F-[…] (SEQ ID NO:4); R-[…] SEQ ID NO:5). The primer sequences used for internal control (GAPDH) are F-AATCCCATCACCATCTTCC SEQ ID NO:6); R-gTCCTTCCACgATACCAAAg SEQ ID NO:7)."}}, "data": [{"molecule": "N.N.[Cl][Pt][Cl]", "note": "[cisplatin]", "values": [{"measurement": "percent change in tumor size", "setting": "[1]", "value": "an increase in tumor size at least initially"}]}, {"molecule": "CC(C)CCC[C@@H](C)C1CC[C@H]2C34C=CC5(C[C@@H](OC(=O)CBr)CC[C@]5(C)[C@H]3CC[C@]12C)n1c(=O)n(C)c(=O)n14", "note": "(stereo partly drawn) [MeTC7]", "values": [{"measurement": "PD-L1 expression", "setting": "[2]", "value": "reduced PD-L1 expression"}, {"measurement": "PD-L1 expression", "setting": "[3]", "value": "down regulate"}, {"measurement": "PD-L1 expression", "setting": "[4]", "value": "down regulate"}, {"measurement": "PD-L1 expression", "setting": "[5]", "value": "a similar effect was not found"}]}, {"molecule": "B1", "values": [{"measurement": "increase in PD-1 expression (PD-1/GAPDH ratio)", "setting": "[6]", "value": 77.7, "unit": "%"}]}]}
